Test results: patent US20240207422A1, “NERVE TARGETING PEPTIDE CONJUGATES AND METHODS OF USE” (Alume Biosciences, Inc., priority 2022, published 2024)

System: excised human nerve tissue
Experiment: Phage display selection on excised human nerve tissue (Nerve2, Nerve3), NextGen sequence counts
Format: binding
Details: unique sequence count (relative enrichment)
Description: Several m13 phage libraries were constructed expressing randomized variants of a parent peptide (QVPWEEPYYVVKKS-SGGL; SEQ ID NO: 576). In particular, the first 14 amino acids of the parent peptide were randomized using degenerate oligonucleotide synthesis to obtain a diverse set of peptides with a mutation rate of about 50% per residue.
To accomplish this, synthesis was carried out by the XXK codon design approach, where X is any base and K is G or T. To bias synthesis towards the parent sequence, synthesis was carried out at each X position with a mixture of about 70%-85% of the parent nucleotide and 15-30% of the remaining 3 nucleotides. The resulting molecules were inserted into fADL-1e (Antibody Design Laboratories), which is a type 3 phage display vector having a cloning site on the N-terminal side of the full-length gene III protein. The fusion proteins are directed to the periplasm by the PelB leader peptide, which is inserted in the vector […].
Collectively, the phage display libraries used in the screens comprised about 600 million peptides, with sequencing analysis confirming a mutation rate of about 50% per residue.
Phage libraries were independently processed, as follows, with five biological samples: two independent samples of excised human nerve tissue, one sample of a human nerve extract, and two independent samples of human muscle tissue, as follows:
Excised Human Nerve Tissue: For each of the two independent samples, phage were processed through multiple cycles of selection, with representative phage being isolated and sequenced after each selection cycle. Specifically, for selection using human nerve tissue, a sample of […] tissue (2 mm by 2 mm) was washed prior to mixing and incubation with a phage library. After incubation, the mixture (containing mostly intact nerves with phage particles that had variable affinity for nerves) was centrifuged and the nerve pellet washed multiple times with PBS to remove phage with little or no affinity for nerve tissue. The pellet was homogenized and plated for titering and reamplification. Phage that were bound at each round were sequenced. NextGen sequencing of pools after 2, 3 and 4 rounds of selection were used to isolate candidate sequences that were further analyzed using bioinformatics.
NextGen sequencing of pools after 2, 3 and 4 rounds of selection were used to isolate candidate sequences from each of the five samples. These five data sets were then analyzed as described in the next section.
Peptide and vector sequences were translated starting at the first start codon in the nucleotide sequence. […] Trimmed peptides with identical sequences were combined and quantified according to their frequency (count).
Following processing, an R script was written to merge the unique peptide sequences (with counts 6 or greater) from the 5 different data sets to analyze the overlap between nerve and muscle binding activity.
For the single Nerve2, Nerve3, and Plated Nerve2 (pn2) subsets, the number of counts for each group was set at a threshold giving rise to at least 100 peptides. […] As highlighted in yellow in FIG. 1B, the representative group also included 6 unique peptides overlapping between nerve2 and nerve3, 200 unique peptides overlapping between nerve2 and plated nerve2 (at least 60 counts), 4 unique peptides overlapping between nerve3 and plated nerve2. Finally, as highlighted in green in FIG. 1B, the representative group also included […] common to the nerve2, nerve3, and plated nerve2 sets.

[1] = peptides common to Nerve2, Nerve3 and Plated Nerve 2 sets
[2] = peptides overlapping between Nerve2 and Plated Nerve2

414 (QGSSVATSSVLTML) [compound 414]
Count (Nerve3 only): 123

445 (QLRVKLQYDVIANN) [compound 445]
Count (Nerve3 only): 81

411 (NDPWPVPYYMVKNS) [compound 411]
Count (Nerve3 only): 130

415 (QPCADKPYCVHTIT) [compound 415]
Count (Nerve3 only): 123

12 (QHPFEQSFYVVNKF) [compound 12]
Count [1]: 227

218 (QPPREQPYHIMKNS) [compound 218]
Count [2]: 65

110 (QFPSEASHYVVRNS) [compound 110]
Count [2]: 111

128 (QIYWHESNYLVTKS) [compound 128]
Count [2]: 102

205 (DHTRVHPYYDFEIP) [compound 205]
Count [2]: 67

122 (QLTSAEASYVGKQS) [compound 122]
Count [2]: 105

322 (KLPWQESYDIVRKS) [compound 322]
Count (Nerve2 only): 10

94 (HIPFPGLYSNLDQS) [compound 94]
Count [2]: 127

439 (HVAWKAPYHFTKNS) [compound 439]
Count (Nerve3 only): 87

394 (HFPSEYPFDLVSKS) [compound 394]
Count (Nerve3 only): 196

18 (LRSTADAHYTLKKS) [compound 18]
Count [1]: 152

398 (QDPSVDPYYVDRSS) [compound 398]
Count (Nerve3 only): 181

28 (HVHWDATYYAVTNS) [compound 28]
Count [1]: 77

349 (YVPVEGIQHVVEKS) [compound 349]
Count (Nerve2 only): 10

346 (QVSLQEPGDVLKEF) [compound 346]
Count (Nerve2 only): 10

83 (SIPGEDSLYAVTEH) [compound 83]
Count [2]: 142

386 (QFQLDQSYYSFNTL) [compound 386]
Count (Nerve3 only): 231

280 (QNPGKSPYYVVHKS) [compound 280]
Count (Nerve2 only): 12

384 (EFLGEAPYYVVSRS) [compound 384]
Count (Nerve3 only): 236

86 (HVHWQVPSNIVRNS) [compound 86]
Count [2]: 139

227 (QHPVKERDEFWKES) [compound 227]
Count [2]: 64

47 (QIPSQRPSSVGAIA) [compound 47]
Count [2]: 292

60 (HVPSKQMNSLAKKS) [compound 60]
Count [2]: 196

276 (QIPLDARSYLLKRP) [compound 276]
Count (Nerve2 only): 12

302 (QVACEQPYYNVNCS) [compound 302]
Count (Nerve2 only): 11

347 (QVSREEPSGVVNKP) [compound 347]
Count (Nerve2 only): 10

300 (QLGLDKLNHLVKKS) [compound 300]
Count (Nerve2 only): 11

180 (QHTHKQPFNVVKNY) [compound 180]
Count [2]: 75

224 (HVPLQGPYYVKQKP) [compound 224]
Count [2]: 64

399 (QFHCHGACYIVKNS) [compound 399]
Count (Nerve3 only): 180

339 (QLRWHEPYHVVNRY) [compound 339]
Count (Nerve2 only): 10

441 (QFALKGLNGDFQKS) [compound 441]
Count (Nerve3 only): 83

204 (DFPWEQRSSTVKQY) [compound 204]
Count [2]: 67

343 (QVPSEEQFYAAVKS) [compound 343]
Count (Nerve2 only): 10

440 (DGLYVRSFYVLQHS) [compound 440]
Count (Nerve3 only): 86

229 (EFSREQPNDFLNKS) [compound 229]
Count [2]: 63

403 (QFPQGEAGYIAKSF) [compound 403]
Count (Nerve3 only): 163

345 (QVRYVASSDLVRIP) [compound 345]
Count (Nerve2 only): 10

376 (QLPWEVPYSVVRQS) [compound 376]
Count (Nerve3 only): 267

29 (QFPYDHKNYVVKYS) [compound 29]
Count [1]: 69

449 (QVPGNELYFVLKQY) [compound 449]
Count (Nerve3 only): 77

200 (QCPLEESCFDGQKS) [compound 200]
Count [2]: 69

350 (HVRCEEPYCHVRKS) [compound 350]
Count (Nerve3 only): 755

363 (DVAREKPYYDMKKS) [compound 363]
Count (Nerve3 only): 335

41 (HSYREEPYYFGKRS) [compound 41]
Count [2]: 632

187 (HVQSANPYYDVRNS) [compound 187]
Count [2]: 72

364 (QFPSVGSYYVVPQS) [compound 364]
Count (Nerve3 only): 331

246 (QNPWHYPYSLVSTA) [compound 246]
Count (Nerve2 only): 17

191 (DVLWEEPRYFVNNS) [compound 191]
Count [2]: 71

31 (HLPWEGQLNIGNKS) [compound 31]
Count (peptides overlapping between Nerve2 and Nerve3): 357

257 (YVPGAAPIGIVHKS) [compound 257]
Count (Nerve2 only): 14

381 (QHPWEDPYKIFNKY) [compound 381]
Count (Nerve3 only): 240

216 (HSHGQELFYVVTNT) [compound 216]
Count [2]: 65

299 (QITFEVPCCLVRKG) [compound 299]
Count (Nerve2 only): 11

247 (DVPFRLWNFAVVDS) [compound 247]
Count (Nerve2 only): 15

298 (QIPLAYSNYVVNKY) [compound 298]
Count (Nerve2 only): 11

141 (QFAWDSPYSRGKKT) [compound 141]
Count [2]: 90

133 (HMRSEQPYYGGKVS) [compound 133]
Count [2]: 95

152 (QVLWEERLYVVKNS) [compound 152]
Count [2]: 83

290 (HVPLEGSYLDDINS) [compound 290]
Count (Nerve2 only): 11

134 (EVPRTERNFVVKNT) [compound 134]
Count [2]: 94

361 (QRPWEQAYFVVRST) [compound 361]
Count (Nerve3 only): 357

11 (QVPRQELYYVSHQF) [compound 11]
Count [1]: 245

171 (QFSSAEAYTVVNES) [compound 171]
Count [2]: 77

203 (RLPSEEPYTVAKRP) [compound 203]
Count [2]: 68

197 (DVTWEEPYYAVKNS) [compound 197]
Count [2]: 69

367 (QFQWQELLNVVKDS) [compound 367]
Count (Nerve3 only): 327

129 (HIPGDETSYVMKKY) [compound 129]
Count [2]: 100

77 (QFPGQALSFVHEKS) [compound 77]
Count [2]: 152

251 (TQRWAEPYHVFHKS) [compound 251]
Count (Nerve2 only): 15

220 (QVPCEEPWCLVKVN) [compound 220]
Count [2]: 65

430 (QLPWGKPYNVVVYS) [compound 430]
Count (Nerve3 only): 101

124 (LFASENPYNVKSKS) [compound 124]
Count [2]: 103

379 (RIHLYQPYSILKNY) [compound 379]
Count (Nerve3 only): 258

396 (QIVLNAPYYVVKTS) [compound 396]
Count (Nerve3 only): 189

209 (SVTRYDLSTDVTKS) [compound 209]
Count [2]: 67

420 (QFGQENHNHFVRKS) [compound 420]
Count (Nerve3 only): 113

402 (QIPLKTPYNVVKKF) [compound 402]
Count (Nerve3 only): 171

278 (QLPSKASNSVQQTF) [compound 278]
Count (Nerve2 only): 12

148 (YVTSESPYYVHGQP) [compound 148]
Count [2]: 87

65 (HVAEAESYNVVKKT) [compound 65]
Count [2]: 187

91 (HDASIALYDPVLMS) [compound 91]
Count [2]: 133

341 (QTLAGETNSVVLKF) [compound 341]
Count (Nerve2 only): 10

270 (HVLWEDPYYVVRMP) [compound 270]
Count (Nerve2 only): 12

232 (EFTWEGLSEGVNEP) [compound 232]
Count [2]: 62

281 (QVWGEVPLSGAKRF) [compound 281]
Count (Nerve2 only): 12

153 (RSTWEQSYTIVKES) [compound 153]
Count [2]: 83

190 (QISLTEATLVVRKS) [compound 190]
Count [2]: 72

14 (YNLWDAPSYLVKNS) [compound 14]
Count [1]: 201

431 (QTPWQVPGYNMLNS) [compound 431]
Count (Nerve3 only): 99

120 (QLEWEEPHYAARKS) [compound 120]
Count [2]: 107

312 (HVAWKGPYYVLETH) [compound 312]
Count (Nerve2 only): 10

55 (QIRSEVTHSVVRES) [compound 55]
Count [2]: 213

301 (QSSSVEPYYVLQNS) [compound 301]
Count (Nerve2 only): 11

208 (QLPSQEPYNVQRKS) [compound 208]
Count [2]: 67

313 (HVHGAPSYSVLKHS) [compound 313]
Count (Nerve2 only): 10

161 (QFRSGEAYVVVQTS) [compound 161]
Count [2]: 80

223 (HVHFTDPHYVMKKS) [compound 223]
Count [2]: 64

355 (RVPWQEPYYVVLKP) [compound 355]
Count (Nerve3 only): 419
